Key:
[1] = tested on: non-morphogenic cell suspensions of Oryza sativa cv. IR 52; assay: Rice transformation by particle gun with cyanamide or hygromycin selection; format: cell-based
Method: Described below is the method used for transformation of non-morphogenic cell suspensions of Oryza sativa cv. IR 52 using a particle inflow gun (PIG) according to Finer et al. (Plant Cell Rep. 11, 323-328, 1992).
A long-term, non-morphogenic suspension culture of Oryza sativa cv. IR 52 was subcultured in weekly intervals in liquid LS-4 (Linsmaier and Skoog, Physiol. Plant. 18, 100-127, 1962) medium and maintained on a rotary shaker (110 rpm) at 28° C. in the dark. (The contents of the LS-4 medium can be found in Table Z). 3-4 days after the last subculture 1.5 ml of this cell suspension (appro. 1.5×10^6 cells) were evenly spread on a filter paper (Whatman no 4) which was subsequently placed on solidified LS-4 medium and cultivated in the dark at 28° C. for 24 h and directly used for bombardment thereafter. For microprojectile bombardment a home-made particle inflow gun (PIG) according to Finer et al. (1992) was used. 300 μg tungsten particles coated with either pMOG 617 (35S-gus and 35S-hyg) or pMOG 873 (35S-cah) were loaded on a particle support. The particles were accelerated by a 2.5 bar helium pulse and had to pass a 500 μm metal stop screen, placed 2 cm under the particle support. The suspension cells were placed 15 cm under the particle support. The PIG was evacuated to 30 mbar before bombardment. After bombardment the cells were cultured at 28° C. in the dark for 3 days. Then the filters with the cells were transferred to solid LS-4 medium containing various concentrations of cyanamide or 50 mg/l hygromycinB (see table 6). The subculture was repeated every 9 days. Resistant microcalli that were visible after 4-6 weeks were transferred to fresh LS-4 medium containing the respective selective agent. From two experiments 7+41 calli transformed with pMOG617 were found resistant to hygromycin, while for the transformation with pMOG873 7 calli survived cyanamide 20 mg/l in the first experiment (results from the second experiment not yet available) and 0+4 calli remained viable on 40 mg/l cyanamide. […] The transgenic nature was confirmed by testing parts of the developing callus for the presence of the DNA in the callitransformed with pMOG873.

[2] = tested on: regenerable embryogenic suspension of Grand nain; assay: Kill curves in banana (Musa); format: cell-based; details: for % Live cells as assessed by FDA: 21 days; for % Callus Growth: approximate visual estimate
Method: To test the potential of cyanamide as a selection agent for transformation in banana two kill curves were set up with a regenerable embryogenic suspension of Grand nain 6 day old embryogenic suspension (Ed6b) cultures, subbed routinely in M2 2,4D liquid, containing 4.32 g/l MS salts, 45 g/l sucrose, standard 1×concn. MS vitamins, 100mg/l glutamine, 100 mg/l myo-inositol, 100 mg/l biotin, 100mg/l malt extract at pH 5.3 and added after autoclaving 1.2 mg/l 2,4-D and 0.8 mg/l picloram.
Cultures were sieved (>250μ, <710μ) and aliquots of approx 50 μl sieved culture in 300μl volume of liquid were pipetted onto two kill curve media as detailed below (3 reps per plate). Culture growth and survival were monitored over the following 3 weeks and cell survival assessed after 21 days via FDA staining.
Kill Curve Medium A : M2/MS/1.0 2,4-D (as M2/MS/2,4-D except only 1.0 mg/l 2,4-D, no picloram and +2.25 g/l gelrite): this medium promotes the rapid division and growth of embryogenic callus, but not embryos. Kill Curve Medium B : M2/SH/0.5Pic, 0.5 2,4-D (as M2/MS/2,4-D except only 0.5 mg/l 2,4-D and 0.5 mg/l picloram, SH salts (4.32 g/1) instead of MS, +2.25 g/l gelrite): This medium promotes the early development of embryos which can be matured and germinated by transfer to alternative media.
Cyanamide was added to both media types, after autoclaving, to concentrations of 0,20,30,50,75,100,150 mg/l.

[3] = Medium M2/MS/2,4-D, cyanamide 20 mg/l
[4] = Medium M2/MS/2,4-D, cyanamide 30 mg/l
[5] = Medium M2/MS/2,4-D, cyanamide 50 mg/l
[6] = Medium M2/MS/2,4-D, cyanamide 75 mg/l
[7] = Medium M2/MS/2,4-D, cyanamide 100 mg/l
[8] = Medium M2/MS/2,4-D, cyanamide 150 mg/l
[9] = Medium M2/SH/0.5Pic +0.5 2,4-D, cyanamide 20 mg/l
[10] = Medium M2/SH/0.5Pic +0.5 2,4-D, cyanamide 30 mg/l
[11] = Medium M2/SH/0.5Pic +0.5 2,4-D, cyanamide 50 mg/l
[12] = Medium M2/SH/0.5Pic +0.5 2,4-D, cyanamide 75 mg/l
[13] = Medium M2/SH/0.5Pic +0.5 2,4-D, cyanamide 150 mg/l

Compound: N#CN [Cyanamide]
- Callus formation ([1]; 50 mg/l cyanamide or higher): No calli were formed
- Calli that remained viable ([1]; pMOG873 (35S-cah), 40 mg/l cyanamide, two experiments): 0+4
- Calli that survived ([1]; pMOG873 (35S-cah), cyanamide 20 mg/l, first experiment): 7
- Surviving calli positive in a PCR experiment on the cah-gene ([1]; pMOG873, 40 mg/l cyanamide): One of the 4
- Concentration up to which there is no significant visual browning of cultures and release of phenolics [2]: > 75 mg/L
- inhibition at 20 µg/mL ([2]; 20 mg/l, read-out: Inhibition of the growth of embryogenic callus): 40 to 50%
- % Live cells as assessed by FDA [2, 3]: 60%
- % Callus Growth [2, 3]: +30%
- % Live cells as assessed by FDA [2, 4]: 50%
- % Callus Growth [2, 4]: +20%
- % Live cells as assessed by FDA [2, 5]: 20%
- % Callus Growth [2, 5]: 0%
- % Live cells as assessed by FDA [2, 6]: 10%
- % Callus Growth [2, 6]: 0%
- % Live cells as assessed by FDA [2, 7]: 10%
- % Callus Growth [2, 7]: 0%
- % Live cells as assessed by FDA [2, 8]: 0%
- % Callus Growth [2, 8]: 0%
- Embryos Formed (average) [2, 9]: 0
- % Live cells as assessed by FDA [2, 9]: 50%
- Embryos Formed (average) [2, 10]: 0
- % Live cells as assessed by FDA [2, 10]: 40%
- Embryos Formed (average) [2, 11]: 0
- % Live cells as assessed by FDA [2, 11]: 30%
- Embryos Formed (average) [2, 12]: 0
- % Live cells as assessed by FDA [2, 12]: 20%
- Embryos Formed (average) ([2]; Medium M2/SH/0.5Pic +0.5 2,4-D, cyanamide 100 mg/l): 0
- Embryos Formed (average) [2, 13]: 0
- % Live cells as assessed by FDA [2, 13]: 0%
- Embryogenesis ([2]; lowest concentration tested (20 mg/l)): totally inhibited

Source: patent US6660910B1, “Selection marker” (Syngenta Mogen B.V., priority 1997, dated 2003)
